Among the data in patent publication US8633315B2, “Substituted hydroxyethyl amine compounds as beta-secretase modulators and methods of use” (Amgen Inc., priority 2007, dated 2014) are RLM, IC50 and HLM values, retold here.

Data set [1] in a line: Microsomal stability assay, rat liver microsomes. It counts as in vitro ADME. The source says:
(§1) Microsomal Stability Assay

For data set [2], the target named is BACE1 (Homo sapiens, UniProt P56817). As to the kind of experiment: In vitro enzymatic BACE FRET (fluorescence resonance energy transfer) assay. It counts as biochemical. Particulars: read-out: BACE 1 FRET assay. The procedure, abridged: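 Cleavage of a quenched peptide FRET substrate (50 nM) in 0.05 M acetate pH 4.2, 10% DMSO, 100 uM genapol, 1 h incubation. Reaction stopped by Tris neutralization; fluorescence read at excitation 488 nm / […].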
BACE1, sequence (P56817 46-501, species assumed): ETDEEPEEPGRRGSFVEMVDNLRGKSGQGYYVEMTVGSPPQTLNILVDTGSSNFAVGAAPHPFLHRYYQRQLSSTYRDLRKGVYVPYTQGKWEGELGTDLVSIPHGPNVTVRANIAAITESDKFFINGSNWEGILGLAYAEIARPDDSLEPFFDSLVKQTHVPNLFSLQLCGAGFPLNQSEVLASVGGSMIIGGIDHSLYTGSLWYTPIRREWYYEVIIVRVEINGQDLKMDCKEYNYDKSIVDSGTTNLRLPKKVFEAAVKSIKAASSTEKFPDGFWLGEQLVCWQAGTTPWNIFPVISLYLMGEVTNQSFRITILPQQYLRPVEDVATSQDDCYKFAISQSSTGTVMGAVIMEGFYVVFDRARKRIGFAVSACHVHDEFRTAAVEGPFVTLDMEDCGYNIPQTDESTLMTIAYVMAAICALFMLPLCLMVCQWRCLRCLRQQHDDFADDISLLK

The target in data set [3] is CYP3A4 (CYP3A) (Homo sapiens, UniProt P08684). Put plainly: CYP3A inhibition assay (midazolam, pooled human liver microsomes). It counts as in vitro ADME. Particulars: human, pooled human liver microsomes, pH 7.4, probe midazolam (printed as about […]); read-out: 3A4 IC50. On the technique in general: Liver microsomes are a subcellular fraction often used to study metabolism.
CYP3A4 (CYP3A), sequence (P08684 2-503): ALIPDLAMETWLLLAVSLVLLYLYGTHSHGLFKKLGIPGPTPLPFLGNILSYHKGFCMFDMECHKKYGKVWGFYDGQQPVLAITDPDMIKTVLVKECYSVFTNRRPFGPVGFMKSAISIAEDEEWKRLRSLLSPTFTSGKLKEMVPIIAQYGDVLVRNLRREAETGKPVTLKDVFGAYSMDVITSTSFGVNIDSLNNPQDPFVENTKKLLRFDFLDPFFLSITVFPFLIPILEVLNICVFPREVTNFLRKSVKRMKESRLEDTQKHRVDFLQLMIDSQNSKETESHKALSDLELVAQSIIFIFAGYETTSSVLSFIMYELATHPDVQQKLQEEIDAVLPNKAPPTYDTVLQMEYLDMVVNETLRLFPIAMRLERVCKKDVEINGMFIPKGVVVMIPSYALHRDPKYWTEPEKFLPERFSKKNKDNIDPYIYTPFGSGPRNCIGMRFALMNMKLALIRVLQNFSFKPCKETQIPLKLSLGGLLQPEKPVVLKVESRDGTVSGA

Data set [4] can be described thus: Microsomal stability assay, human liver microsomes. It counts as in vitro ADME.
From the text: as §1

For data set [5], the system named is Cells stably expressing Amyloid Precursor Protein (APP). As to the kind of experiment: In vitro BACE cell-based assay (HEK cell assay): Aβ40 in conditioned medium by sandwich ELISA. The following applies: Homo sapiens, HEK293. The gist of the method: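 APP-stably-expressing cells were grown 24 h in DMEM/10% FBS, then treated for 24 h with 10-point doses starting at 100 μM or 10 μM, at 0.1% DMSO final. Aβ40 in conditioned medium was measured by sandwich ELISA (pAb40 capture, biotinylated 6E10 detection, europium time-resolved fluorescence); IC50 from percent inhibition.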

SMILES strings stand for the structures.

Consider `C=CC[C@H](NC(=O)COC)[C@H](O)CN[C@H]1CC2(CCC2)Oc2c1cc(CC(C)(C)C)nc2-c1nccn1C` [compound 237, N-((1S)-1-((1R)-2-(((4′S)-6′-(2,2-dimethylpropyl)-8′-(1-methyl-1H-imidazol-2-yl)-3′,4′-dihydrospiro[cyclobutane-1,2′-pyrano[2,3-c]pyridin]-4′-yl)amino)-1-hydroxyethyl)-3-buten-1-yl)-2-methoxyacetamide], for which, in data set [1], the RLM was found to be 64 µL/min/mg. The IC50 in data set [2] worked out at 1230 nM; in data set [5], 385 nM. Moreover, in data set [3], the IC50 at 10 min came out at 160 nM. In addition, in data set [4], the HLM amounted to 58 µL/min/mg.
The corresponding values for `C=CC[C@H](NC(=O)COC)[C@H](O)CN[C@H]1CC2(CCC2)Oc2c1cc(CC(C)(C)C)nc2Nc1ccc2c(c1)OCO2` [compound 233, N-((1S)-1-((1R)-2-(((4′S)-8′-(1,3-benzodioxol-5-ylamino)-6′-(2,2-dimethylpropyl)-3′,4′-dihydrospiro[cyclobutane-1,2′-pyrano[2,3-c]pyridin]-4′-yl)amino)-1-hydroxyethyl)-3-buten-1-yl)-2-methoxyacetamide] are 197 µL/min/mg, 16 nM, 388 nM, 1300 nM and 151 µL/min/mg.
Taken in the same sequence, the figures for `C=CC[C@H](NC(=O)COC)[C@H](O)CN[C@H]1CC2(CCC2)Oc2c1cc(CC(C)(C)C)nc2Nc1nccs1` [compound 236] were 119 µL/min/mg, 54 nM, 366 nM, 1200 nM and 614 µL/min/mg.
Taken in the same sequence, the figures for `C=CC[C@H](NC(=O)[C@@H](C)OC)[C@H](O)CN[C@H]1CC2(CCC2)Oc2c(-c3nccs3)cc(CC(C)C)cc21` [compound 210] were 644 µL/min/mg, 92 nM, 1110 nM, 200 nM and 829 µL/min/mg.
For the compound `CCC[C@H](NC(=O)COC)[C@H](O)CN[C@H]1CC2(CCC2)Oc2c1cc(CC(C)(C)C)nc2NC` [compound 226], the RLM in data set [1] was found to be 259 µL/min/mg. Besides, the IC50 in data set [2] was 617 nM; in data set [5], 83 nM. The IC50 at 10 min in data set [3] worked out at 5000 nM. This compound also showed an HLM in data set [4] of 161 µL/min/mg.
The corresponding values for `C=CC[C@H](NC(=O)COC)[C@H](O)CN[C@H]1CC2(CCC2)Oc2c1cc(CC(C)(C)C)nc2Nc1ccccc1` [compound 230] are 168 µL/min/mg, 40 nM, 1380 nM, 3500 nM and 345 µL/min/mg.
The corresponding values for `C=CC[C@H](NC(=O)COC)[C@H](O)CN[C@H]1CC2(CCC2)Oc2c(-c3ccc4c(c3)OCO4)cc(CC(C)(C)C)cc21` [compound 231, N-((1S)-1-((1R)-2-(((4S)-8-(1,3-benzodioxol-5-yl)-6-(2,2-dimethylpropyl)-3,4-dihydrospiro[chromene-2,1′-cyclobutan]-4-yl)amino)-1-hydroxyethyl)-3-buten-1-yl)-2-methoxyacetamide] are 232 µL/min/mg, 78 nM, 369 nM, 1000 nM and 284 µL/min/mg.
Taken in the same sequence, the figures for `C=CC[C@H](NC(=O)COC)[C@H](O)CN[C@H]1CC2(CCC2)Oc2c1cc(CC(C)(C)C)nc2Nc1cccnc1` [compound 240] were 152 µL/min/mg, 268 nM, 345 nM, 500 nM and 551 µL/min/mg.
On to `C=CC[C@H](NC(=O)COC)[C@H](O)CN[C@H]1CC2(CCC2)Oc2ncc(C(F)(F)C(C)(C)C)cc21` [compound 234], for which, in data set [1], the RLM came to 173 µL/min/mg. For the same compound, the IC50 in data set [2] is 2410 nM; in data set [5] it was 5630 nM. Besides, in data set [3], the IC50 at 10 min was found to be 4100 nM. Further, the HLM in data set [4] stood at 299 µL/min/mg.
Taken in the same sequence, the figures for `CCC[C@H](NC(=O)[C@@H](C)OC)[C@H](O)CN[C@H]1CC2(CCC2)Oc2c1cc(CC(C)(C)C)nc2Cl` [compound 223, (2R)-N-((1S)-1-((1R)-2-(((4′S)-8′-chloro-6′-(2,2-dimethylpropyl)-3′,4′-dihydrospiro[cyclobutane-1,2′-pyrano[2,3-c]pyridin]-4′-yl)amino)-1-hydroxyethyl)butyl)-2-(methyloxy)propanamide] were 249 µL/min/mg, 371 nM, 10000 nM, 3500 nM and 515 µL/min/mg.
Taken in the same sequence, the figures for `C=CC[C@H](NC(=O)COC)[C@H](O)CN[C@H]1CC2(CCC2)Oc2c1cc(CC(C)(C)C)cc2-n1ccnc1` [Example 216, N-((1S)-1-((1R)-2-(((4S)-6-(2,2-dimethylpropyl)-8-(1H-imidazol-1-yl)-3,4-dihydrospiro[chromene-2,1′-cyclobutan]-4-yl)amino)-1-hydroxyethyl)-3-buten-1-yl)-2-methoxyacetamide] were 150 µL/min/mg, 442 nM, 328 nM, 200 nM and 49 µL/min/mg.
Taken in the same sequence, the figures for `C=CC[C@H](NC(=O)COC)[C@H](O)CN[C@H]1CC2(CCC2)Oc2c(Br)cc(CC(C)(C)C)cc21` [compound 214] were 247 µL/min/mg, 44 nM, 2170 nM, 900 nM and 492 µL/min/mg.
The compound `CCOC[C@H](NC(C)=O)[C@@H](O)CN[C@H]1CC2(CCC2)Oc2ncc(CC(C)(C)C)cc21` [compound 241] registered an RLM in data set [1] of 45 µL/min/mg. Besides, the IC50 in data set [2] came out at 2720 nM; in data set [5] it was 93 nM. Further, the IC50 at 10 min in data set [3] stood at 3700 nM. In addition, the HLM in data set [4] came out at 84 µL/min/mg.
The corresponding values for `C#CC[C@H](NC(C)=O)[C@H](O)CNC1CC2(CCC2)Oc2c1cc(CC(C)(C)C)nc2NC` (stereo partly drawn) [Example 221] are 106 µL/min/mg, 78 nM, 58 nM, 1900 nM and 61 µL/min/mg.
Taken in the same sequence, the figures for `COC[C@H](NC(C)=O)[C@H](O)CN[C@H]1CC2(CCC2)Oc2ncc(CC(C)(C)C)cc21` [compound 225] were 14 µL/min/mg, 480 nM, 462 nM, 27000 nM and 40 µL/min/mg.
The corresponding values for `CCC[C@H](NC(=O)[C@@H](C)OC)[C@H](O)CN[C@H]1CC2(CCC2)Oc2c1cc(CC(C)(C)C)nc2NC` [compound 227] are 212 µL/min/mg, 903 nM, 163 nM, 1500 nM and 119 µL/min/mg.
The compound `C=CC[C@H](NC(C)=O)[C@H](O)CN[C@H]1CC2(CCC2)Oc2c1cc(CC(C)(C)C)nc2Nc1ccccc1` [compound 229, N-((1S)-1-((1R)-2-(((4′S)-6′-(2,2-dimethylpropyl)-8′-(phenylamino)-3′,4′-dihydrospiro[cyclobutane-1,2′-pyrano[2,3-c]pyridin]-4′-yl)amino)-1-hydroxyethyl)-3-buten-1-yl)acetamide] registered an RLM in data set [1] of 150 µL/min/mg. Moreover, the IC50 is 26 nM in data set [2] and 987 nM in data set [5]. Also, the IC50 at 10 min in data set [3] came to 6100 nM. Besides, in data set [4], the HLM was determined as 139 µL/min/mg.
The corresponding values for `C=CC[C@H](NC(=O)COCC)[C@H](O)CN[C@H]1CC2(CCC2)Oc2ncc(CC(C)(C)C)cc21` [compound 244] are 176 µL/min/mg, 2450 nM, 3170 nM, 1300 nM and 543 µL/min/mg.
The corresponding values for `CCC[C@H](NC(=O)[C@H]1CCCO1)[C@H](O)CN[C@H]1CC2(CCC2)Oc2c1cc(CC(C)(C)C)nc2NC` [compound 228, (2R)-N-((1S)-1-((1R)-2-(((4′S)-6′-(2,2-dimethylpropyl)-8′-(methylamino)-3′,4′-dihydrospiro[cyclobutane-1,2′-pyrano[2,3-c]pyridin]-4′-yl)amino)-1-hydroxyethyl)butyl)tetrahydro-2-furancarboxamide] are 345 µL/min/mg, 627 nM, 781 nM, 1500 nM and 165 µL/min/mg.
The corresponding values for `C=CC[C@H](NC(=O)CCC(C)(C)C)[C@H](O)CN[C@H]1CC2(CCC2)Oc2ncc(CC(C)(C)C)cc21` [compound 245] are 459 µL/min/mg, 9250 nM, 10000 nM, 300 nM and 829 µL/min/mg.
As to `C=CC[C@H](NC(=O)COC)[C@H](O)CN[C@H]1CC2(CCC2)Oc2c(-c3cccnc3)cc(CC(C)(C)C)cc21` [compound 220], the RLM in data set [1] was determined as 369 µL/min/mg. Moreover, the IC50 in data set [2] came to 107 nM; in data set [5] it was 125 nM. In addition, the IC50 at 10 min in data set [3] was determined as 300 nM. In data set [4], this compound displayed an HLM of 569 µL/min/mg.
